# Data taken from patent US20240408022A1, “DESIDUSTAT PARTICLES AND COMPOSITIONS THEREOF” (ZYDUS LIFESCIENCES LIMITED, priority 2021, published 2024).
# Assay: Particle size and specific surface area analysis (Malvern Mastersizer 3000, laser diffraction)
# Assay type: physicochemical
# Conditions: for D10 / D50 / D90: particle size of desidustat used in the composition
# Protocol: (i) Particle Size and Specific Surface Area Analysis Method:
# Particle size was determined by Malvern Mastersizer 3000 with Hydro MV accessory, laser diffraction particle size analyser. About 100 mg of drug substance weighed and transferred into 100 mL of glass beaker. About 10-15 drops of dispersant sunflower oil:cyclohexane (80:20) were added and the lumps were broken with glass rod for about 3 to 5 min. 20 mL of dispersant was added into the same glass beaker and the content were shaken for 3-5 minutes with glass rod to mix well. Background measurement using dispersant was performed. When the blank correction/background measurement was over, sample slurry (with continuous manual shaking) was added in the sampler at 1500 rpm to get the target obscuration value between 10% and 30% and remained constant. Then the histogram was recorded.
# [1] = Example 1, after further multi-milling using 0.2 mm sieve
Compound,D10 [μm],D50 [μm],D90 [μm],Particle size distribution D10 [1] [μm],Particle size distribution D50 [1] [μm],Particle size distribution D90 [1] [μm],Specific surface area [1] [m^2/g],"Particle size D90 (Example 1, after multi-milling using 5 mm sieve and drying, before 0.2 mm sieve) [μm]"
O=C(O)CNC(=O)c1c(O)c2ccccc2n(OCC2CC2)c1=O [Milled desidustat],0.80,22.7,130.0,–,–,–,–,–
O=C(O)CNC(=O)c1c(O)c2ccccc2n(OCC2CC2)c1=O [Unmilled desidustat],2.16,98.3,366,–,–,–,–,–
"O=C(O)CNC(=O)c1c(O)c2ccccc2n(OCC2CC2)c1=O [desidustat, 2-(1-(Cyclopropylmethoxy)-4-hydroxy-2-oxo-1,2-dihydroquinoline-3-carboxamido) acetic acid]",–,–,–,0.80,22.7,130,2,366
